Experimental data reported in patent publication US7022315B2, “Administration of a thiol-based chemoprotectant compound” (Oregon Health & Science University, priority 2000, dated 2006).
Values after ≈ are worked out from the molar mass of the structure shown. Like-named read-outs stand apart in the source and are kept apart here. Marks after values point to notes of the source that are not given here.

Key:
rats = experiment: Protection against chemotherapy-induced myelosuppression, nadir blood counts; assay type: in vivo, rat; conditions: for White Cell Nadir: mean ± SE
Method: FIGS. 10A–10D show the results of tests on chemoprotection for chemotherapy-induced myelosuppression. Rats received tri-drug chemotherapy (Carboplatin 200 mg/m2, etoposide phosphate 100 mg/m2, melphalan 10 mg/m2), with (triangles, squares) or without (circles) chemoprotection. Blood counts were determined prior to chemotherapy, at the blood nadir (6 days), and in the recovery phase (9 days after treatment). Chemoprotection was with NAC (1200 mg/kg) administered via aortic infusion 30 min prior to chemotherapy (triangles) or NAC prior to chemotherapy and STS (8 g/m2) immediately after chemotherapy (squares). In FIG. 10B and FIG. 10D animals received BSO (10 mg/kg i.p.×3 d) prior to treatment with chemotherapy. […] Significant difference from the no protectant groups were determined by Wilcoxon/Kruskal-Walliis rank sums tests (*p<0.05, **p<0.01).
Chemoprotection against chemotherapy-induced bone marrow toxicity was determined in BSO treated and untreated animals given i.a. carboplatin, etoposide phosphate, and melphalan. NAC with or without STS was administered either about 30 minutes prior to chemotherapy or immediately after chemotherapy, and was administered either i.v. or by aortic infusion.

cultured tumor cells = experiment: Paclitaxel cytotoxicity with BSO and NAC (WST); assay type: cell-based
LX-1 SCLC cells = experiment: cells; conditions: for EC50: average ± pooled sd of two experiments
Method: Cytotoxicity was assessed in cultured LX-1 SCLC cells, 1×10^4 cells per well in 96 well plates, using the WST colorometric assay. […] Chemoprotectant was added at the indicated concentration of N-acetylcysteine shown in FIG. 3A or D-methionine shown in FIG. 3B either alone (n) or immediately following chemotherapy. Data are expressed as the percentage of live cells compared to untreated control samples (without chemotherapy) and each point represents the mean±standard deviation of 4 wells.
The dose/response for rescue from chemotherapy cytotoxicity was evaluated for four different small molecular weight sulfur containing chemoprotectants.
Chemotherapy agents were fixed at the 90% lethal dose for each agent. Each EC50 measurement comprised 6 concentrations with 4 wells per concentration, and each dose response was performed twice for each protectant. EC50 concentrations, in μg/ml are reported as the average±pooled standard deviation for two independent experiments.

[1] = tested on: patients with moderate renal insufficiency; conditions: approximately 1200 mg per day orally, day before and day of contrast agent; computed tomography; cited from earlier work
[2] = Radiolabeled NAC tissue delivery by route of administration; assay type: in vivo, rat; conditions: for 14C-NAC found in brain: Example 10
Method: Radiolabeled NAC in combination with unlabeled low dose NAC (140 mg/kg) or high dose NAC (1200 mg/kg) was administered to rats with the following routes of infusion: i.v. (open bars), intra-arterially into the right carotid artery (striped bars), intra-arterial via the left carotid artery with left internal artery occlusion (aortic infusion) (black bars), and intra-arterial (right carotid) with BBBD (cross hatched bars). Radiolabel in tissue homogenates is expressed as the mean and standard error of the % administered dose of 14C-NAC per gram of tissue (n=3 rats per group). Significant differences from i.v. delivery are indicated by *P<0.05 and **P<0.001.
In this experiment, radiolabeled NAC was administered to rats by three different routes. Liver and kidney tissue, in addition to the ipsilateral and contralateral hemispheres of the brain, were analyzed for radioactivity. Results are shown as the percent of the injected radioactive dose per gram of tissue. Route indicates intravenous (i.v.), intra-arterial into the right carotid artery (i.a.), or left carotid with internal artery occlusion and aortic infusion (left carotid aortic infusion). The left carotid aortic infusion intra-arterial method uses descending aorta placement of the catheter tip and NAC administration.
This example tested whether the inventive method for intra-arterial infusion (via the left carotid artery, with left internal artery occlusion) could reduce brain delivery of NAC and increase systemic delivery. Brain delivery was 0.04% of the injected dose with the inventive method (n=2).
The method of administration of NAC and its biodistribution was tested. Intra-arterial infusion retrograde via the left external carotid artery, with transient left internal artery occlusion, was evaluated as a mechanism to essentially perfuse via the descending aorta with limited delivery to the brain. […] The serum concentration of NAC 10 min after administration of 1200 mg/kg was 2.4 0.6 mg/ml (n=6) as determined by radiolabel remaining in the blood.

GM294 human fibroblasts = experiment: Cytoenhancement and chemoprotection in fibroblasts, WST assay; assay type: cell-based; conditions: independent of BSO treatment; 1000 μg/ml
Method: Cytotoxicity was assessed in GM294 human fibroblasts, 1×10^4 cells per well in 96 well plates, using the WST colorometric assay. […] Data are expressed as the percentage of live cells compared to control samples (without chemotherapy) and each point represents the mean±s.d. of 4 wells.

[3] = administered intravenously; cited from earlier work
[4] = Table 7, no BSO, aortic infusion post chemo
[5] = Table 7, no BSO, i.v. 30 min prior
[6] = Table 7, no BSO, i.v. post chemo
[7] = Table 8, BSO pretreatment, aortic infusion post chemo
[8] = route left carotid aortic infusion, n=2

## CC(=O)N[C@@H](CS)C(=O)O [NAC, N-acetylcysteine]
rats; Table 7, no BSO, aortic infusion 30 min prior (1200 mg/kg), N=6
  White Cell Nadir: 69.7 ± 19.3% of baseline
rats; [4]
  Granulocyte Nadir: 36.6 ± 17.0% of baseline
  Platelet Nadir: 26.8 ± 9.3% of baseline
rats; Table 7, no BSO, aortic infusion post chemo, N=6
  White Cell Nadir: 25.9 ± 4.9% of baseline
rats; [5]
  Granulocyte Nadir: 93.5 ± 28.1% of baseline
  Platelet Nadir: 53.3 ± 12.7% of baseline
rats; Table 7, no BSO, i.v. 30 min prior, N=8
  White Cell Nadir: 51.4 ± 9.4% of baseline
rats; [6]
  Granulocyte Nadir: 57.9 ± 8.8* percent of baseline
  Platelet Nadir: 36.8 ± 10.4% of baseline
rats; Table 7, no BSO, i.v. post chemo, N=6
  White Cell Nadir: 46.0 ± 6.5* percent of baseline
rats; Table 8, BSO pretreatment, aortic infusion 30 min prior
  Platelet Nadir: 23.1 ± 6.2% of baseline
rats; Table 8, BSO pretreatment, aortic infusion 30 min prior, N=9
  White Cell Nadir: 20.1 ± 2.7% of baseline
rats; [7]
  Granulocyte Nadir: 19.8 ± 14.7% of baseline
  Platelet Nadir: 11.7 ± 3.5% of baseline
rats; Table 8, BSO pretreatment, aortic infusion post chemo, N=7
  White Cell Nadir: 13.9 ± 4.2% of baseline
Cultured tumor cells
  effect on BSO-enhanced paclitaxel toxicity: completely reversed the enhanced toxicity
  effect on the dose response for paclitaxel alone: did not change the dose response
LX-1 SCLC cells
  reduction of the cytotoxicity of each alkylator: 75–90%
LX-1 SCLC cells; on a μg/ml basis
  relative effectiveness among the thiol agents tested: most effective
LX-1 SCLC cells; read-out: Chemoprotective agent EC50, protection against carboplatin 200 μg/ml (about 90% lethal dose)
  EC50: 200 ± 15 µg/mL (≈ 1230 µM)
LX-1 SCLC cells; read-out: Chemoprotective agent EC50, protection against cisplatin 15 μg/ml (about 90% lethal dose)
  EC50: 151 ± 15 µg/mL (≈ 925 µM)
LX-1 SCLC cells; read-out: Chemoprotective agent EC50, protection against melphalan 20 μg/ml (about 90% lethal dose)
  EC50: 74 ± 18 µg/mL (≈ 453 µM)
[1]
  effect on renal function after radiographic contrast agent: prevented the expected decline in renal function
[2]; 10 min after administration of 1200 mg/kg, radiolabel remaining in the blood, n=6
  serum concentration of NAC: 2400 µg/mL
[2]; aortic infusion
  14C-NAC found in brain: minimized brain delivery
[2]; i.v.
  14C-NAC found in brain: negligible amounts
[2]; intra-arterial, right internal carotid artery
  14C-NAC found in brain: high levels of radiolabel in the right cerebral hemisphere
[2]; high dose (1200 mg/kg) NAC, data not shown
  liver and kidney delivery with aortic infusion: no change in liver and kidney delivery
[2]; intra-arterial infusion via the left carotid artery with left internal artery occlusion, n=2
  Brain delivery: 0.04 % of the injected dose
[2]; low dose of NAC (140 mg/kg)
  liver and kidney delivery with aortic infusion: decreased liver delivery and increased kidney delivery
[2]; route i.a. into the right carotid artery, n=3
  left hem: 0.03% of the injected radioactive dose per gram of tissue
[2]; route i.v., left brain hemisphere, n=2
  left hem: 0.02% of the injected radioactive dose per gram of tissue
[2]; route i.v., n=2
  kidney: 0.72% of the injected radioactive dose per gram of tissue
  liver: 0.59% of the injected radioactive dose per gram of tissue
[2]; [8]
  kidney: 1.42% of the injected radioactive dose per gram of tissue
  left hem: 0.04% of the injected radioactive dose per gram of tissue
  liver: 0.29% of the injected radioactive dose per gram of tissue
  right hem: 0.04% of the injected radioactive dose per gram of tissue
GM294 human fibroblasts
  chemoprotection against melphalan, cisplatin and carboplatin cytotoxicity: partially to completely chemoprotective
[3]
  brain levels: < 5%
